From patent US11116759B2, “Method of treating cancer” (Exelixis, Inc., priority 2011, dated 2021)

Legend:
[1] = tested on: melanoma, including ocular melanoma; test: Phase 2 randomized discontinuation trial in adults with melanoma (NCT00940225); assay type: in vivo, human
Description: Compound 1 was used in a Phase 2 randomized discontinuation trial study of adults with melanoma, including ocular melanoma (See NCT00940225, Abstract 371). Compound 1 was administered at a daily dose of 100 mg (125 mg salt equivalent). The study endpoints included objective response rate (ORR) per mRECIST in the lead-in stage, and progression-free survival in the randomized stage. The eligibility criteria included: (a) pathologically and radiologically confirmed diagnosis of advanced melanoma; (b) cutaneous, mucosal, or ocular subtypes; (c) up to two lines of prior systemic treatment (not including immunotherapy); (d) documented progressive disease and measurable target lesion(s) per mRECIST; and (e) no known brain metastases. Tumors were assessed by CT/MRI at baseline and every 6 weeks thereafter. Archival tumor tissue was retained for genotyping and biomarker analysis.

[2] = Phase 1 clinical study, tolerability; assay type: in vivo; details: most common adverse events fatigue, diarrhea, anorexia, rash, palmar-plantar erythrodysesthesia
[3] = tested on: pancreatic neuroendocrine tumor; test: Murine pancreatic neuroendocrine tumor model; assay type: in vivo
[4] = tested on: endothelial cells and tumor cells; test: Apoptosis of endothelial cells and tumor cells; assay type: cell-based
[5] = tested on: xenograft tumor models; test: Xenograft tumor models; assay type: in vivo

## COc1cc2nccc(Oc3ccc(NC(=O)C4(C(=O)Nc5ccc(F)cc5)CC4)cc3)c2cc1OC [Compound 1, N-(4-{[6,7-bis(methyloxy)quinolin-4-yl]oxy}phenyl)-N′-(4-fluorophenyl)cyclopropane-1,1-dicarboxamide]
[1]; all enrolled patients with melanoma, daily dose of 100 mg
  Patients with objective tumor shrinkage: sixty
[1]; ocular melanoma Patients 5, 6, 14, 15, 18, 20, 22, 26, 28 and 29 (FIGS. 4A and 4B)
  Best response: stable disease
[1]; patients with ocular cancer, six months
  Patients with evidence of objective tumor regression: 48%
[1]; patients with ocular cancer, week 12
  Disease control rate: 14%
[1]; patients with ocular melanoma who were tested (FIG. 3)
  Patients showing a positive disease control rate: Eight of the fourteen
[1]; patients with ocular melanoma, week 6
  Partial response observed: One
[2]
  Tolerability: generally well-tolerated
[3]
  Overall survival: substantially improves overall survival
  Tumor invasiveness and metastasis: significantly reduces tumor invasiveness and metastasis
[4]
  Induction of apoptosis: rapidly induces apoptosis
[5]
  Effect on tumor: causes tumor regression
